Data taken from US10400285B2, “DDX43 as a biomarker of resistance to MEK1/2 inhibitors” (Memorial Sloan-Kettering Cancer Center, priority 2013, dated 2019).

System: Res-Omm1.3 and Res-Mel270 cells
Assay: Cell viability assay (CCK8), MEKi-resistant cells
Type: cell-based
Method: Cells were plated in 96-well plates, and treated with the indicated concentrations of drugs. […] Cell viability is expressed as a percentage of untreated cells.
To explore mechanisms of drug resistance, MEKi-resistant GNAQ-mutant cell lines were generated by exposing the cells to increasing concentrations of selumetinib for at least four weeks and routinely grown in 1 μM selumetinib, without clonal selection. After continuous exposure, the cell lines Res-Omm1.3 and Res-Mel270 became resistant to selumetinib compared to their parental cells Omm1.3 and Mel270 (FIG. 2A, B).

For `O=C(NOC[C@H](O)CO)c1ccc(F)c(F)c1Nc1ccc(I)cc1F` [PD0325901], the “cell viability: resistance to MEK inhibitor compared to parental cells” value (increasing doses, 4 days, FIG. 2A, B and FIG. 7) was “cross resistance”.

`Cn1cnc2c(F)c(Nc3ccc(Br)cc3Cl)c(C(=O)NOCCO)cc21` [selumetinib] was tested, and the “IC50 of resistant cells relative to their sensitive counterparts” value (Res-Omm1.3 and Res-Mel270 vs parental Omm1.3 and Mel270, cell viability) was 10 fold.

In the case of `NC1(c2ccc(-c3nc4ccn5c(=O)[nH]nc5c4cc3-c3ccccc3)cc2)CCC1` [MK2206], the “sensitivity to AKTi when combined with MEKi” value (MK2206 with selumetinib, FIG. 6) was “sustained” and the “cell viability with AKTi compared to the parental lines” value (increasing concentrations of MK2206, FIG. 6) was “Decreased viability”.
